Data reported in article PMC10850145, “Hormonal steroids induce multidrug resistance and stress response genes in Neisseria gonorrhoeae by binding to MtrR” (Nature Communications, 2024).
Several values for one entry are separate records, joined by “and”; a condition that tells them apart may be missing. Equal entries are not always repeated. Entries after “also recorded” stand apart in the source; their conditions may differ.

Assays:
[1] = test system: ngo1249-lacZ expression; test: β-galactosidase assay, ngo1249-lacZ fusion (negative control gene); details: WT-NGO1249-lacZ, 100 µM hormone
[2] = molecular target: T1, MtrR D171A (Neisseria gonorrhoeae, UniProt P39897, D171A); test: biochemical; assay type: binding; details: ITC
T1 construct: Hexa-histidine tag with TEV protease cleavage site (N, cleaved yes); made in house; host or cells: E. coli Rosetta Gami B(DE3) pLysS

[3] = molecular target: T2, MtrR (Neisseria gonorrhoeae, UniProt P39897); test: Isothermal titration calorimetry, ligand binding to MtrR WT; details: ITC
T2 construct: Hexa-histidine tag with TEV protease cleavage site (N, cleaved yes); made in house; host or cells: E. coli Rosetta Gami B(DE3) pLysS

[4] = molecular target: T3, MtrR binding to mtrCDE operator (21mer) (Neisseria gonorrhoeae, UniProt P39897); test: Plate-based fluorescence polarization DNA-binding assay, mtrCDE operator; details: mtrCDE 21mer + 125µM
T3 construct: Hexa-histidine tag with TEV protease cleavage site (N, cleaved yes); made in house; host or cells: E. coli Rosetta Gami B(DE3) pLysS
Procedure: (§1) To analyze the effect of ethinyl estradiol on DNA binding by MtrR, fluorescence polarization DNA-binding data were collected in 96-well plates (Costar #3915 black, flat bottom). with a SpectraMax M5e Microplate Reader (Molecular Devices) and analyzed with Prism (Graphpad Software, version 10.0.0). Purified MtrR was buffer exchanged into “DNA” binding buffer (150 mM NaCl, 20 mM Tris-HCl pH 7.5, 2.5% glycerol, 1 mM TCEP). […] The binding affinity of protein for DNA was determined using the Morrison’s quadratic equation[72]. BSA and dI-dC are included as carriers and to control for nonspecific DNA binding. Samples were excited at 485 nm and polarized emissions measured at 525 nm, with a 515 nm cutoff. Controls were run with no protein (DNA ± methanol, ethinyl estradiol) to ensure that millipolarization values were not affected by experimental conditions alone. At least three independent experimental measurements were averaged for each reported binding constant.
(§2) Figure S2: Presence of Ethinyl Estradiol influences binding of MtrR to rpoH and mtrCDE operators. Plate based Fluorescence polarization DNA-binding isotherms reveal decreases in the binding affinity of MtrR for the rpoH and mtrCDE operators in the presence of ethinyl estradiol.
(§3) Experiments were run on the three independent experimental measurements were averaged for each reported binding constant. Data are represented by the mean values (point) +/- SEM (error

[5] = molecular target: T4, MtrR binding to rpoH operator (27mer) (Neisseria gonorrhoeae, UniProt P39897); test: Plate-based fluorescence polarization DNA-binding assay, rpoH operator; details: for fluorescence polarization, plate-based MtrR titration: rpoH 27mer + 125µM
T4 construct: Hexa-histidine tag with TEV protease cleavage site (N, cleaved yes); made in house; host or cells: E. coli Rosetta Gami B(DE3) pLysS
Procedure: as §1, §2, §3

[6] = molecular target: T5, MtrR W136A (Neisseria gonorrhoeae, UniProt P39897, W136A); test: biochemical; assay type: binding; details: ITC
T5 construct: Hexa-histidine tag with TEV protease cleavage site (N, cleaved yes); made in house; host or cells: E. coli Rosetta Gami B(DE3) pLysS

[7] = test system: mtrC-lacZ expression; assay type: cell-based, Neisseria gonorrhoeae; details: only when strain produced wild-type MtrR
[8] = test system: rpoH-lacZ expression; assay type: cell-based, Neisseria gonorrhoeae; details: only when strain produced wild-type MtrR
[9] = molecular target: T2, MtrR; set-up: method as in PMID 31331979; details: cited from earlier work

T3 sequence (P39897 whole entry): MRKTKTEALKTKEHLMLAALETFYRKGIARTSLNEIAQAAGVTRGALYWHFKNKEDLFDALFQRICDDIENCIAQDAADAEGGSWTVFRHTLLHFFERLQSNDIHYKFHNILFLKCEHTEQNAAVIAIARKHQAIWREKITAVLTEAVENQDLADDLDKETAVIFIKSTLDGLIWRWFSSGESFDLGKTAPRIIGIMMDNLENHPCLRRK
T4 sequence (P39897 whole entry): as above
T2 sequence (P39897 whole entry): as above
T1 sequence (P39897 whole entry D171A): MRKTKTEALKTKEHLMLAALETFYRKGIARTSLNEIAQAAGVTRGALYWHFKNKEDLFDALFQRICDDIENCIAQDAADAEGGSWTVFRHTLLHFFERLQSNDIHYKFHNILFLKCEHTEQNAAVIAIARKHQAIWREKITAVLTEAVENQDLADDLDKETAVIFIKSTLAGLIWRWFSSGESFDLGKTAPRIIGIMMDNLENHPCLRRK
T5 sequence (P39897 whole entry W136A): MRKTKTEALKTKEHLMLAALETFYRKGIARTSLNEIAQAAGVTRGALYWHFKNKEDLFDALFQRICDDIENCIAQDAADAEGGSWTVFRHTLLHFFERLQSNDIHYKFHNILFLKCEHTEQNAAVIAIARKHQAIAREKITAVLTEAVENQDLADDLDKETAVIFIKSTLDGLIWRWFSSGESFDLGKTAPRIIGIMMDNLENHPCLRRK

With CC12CCC3c4ccc(O)cc4CCC3C1CCC2O (stereo not drawn) [Beta-Estradiol] the “Mean Miller units” value [1] was 4.6 Miller units.
In the case of C#C[C@]1(O)CC[C@H]2[C@@H]3CCc4cc(O)ccc4[C@H]3CC[C@@]21C [Ethinyl Estradiol, ethinyl estradiol], the “binding to MtrR D171A” value [2] is reported as “no observable binding”, the “binding stoichiometry N (ligand per MtrR)” value [3] is reported as ~ 1 and the Kd ([3]; 25 °C, 1% MeOH, read-out: equilibrium dissociation constant (Kd), MtrR WT) is reported as 940 nM and ~940 nM. The “fluorescence polarization, plate-based MtrR titration” value (from here on “fluorescence polarization”) ([4]; MtrR WT dimer 0 nM) was 0 mP, the “fluorescence polarization” value ([4]; MtrR WT dimer 37.5 nM) was 6 mP and 5 mP and the “fluorescence polarization” value ([4]; MtrR WT dimer 75 nM) was 9 mP and 8 mP and 10 mP. For the same compound, the “fluorescence polarization” value ([4]; MtrR WT dimer 100 nM) was 11 mP and 12 mP, the “fluorescence polarization” value ([4]; MtrR WT dimer 150 nM) was 12 mP and 15 mP and 13 mP and the “fluorescence polarization” value ([4]; MtrR WT dimer 200 nM) was 18 mP and 21 mP and 16 mP. The “fluorescence polarization” value ([4]; MtrR WT dimer 300 nM) was 28 mP and 21 mP, the “fluorescence polarization” value ([4]; MtrR WT dimer 400 nM) was 26 mP and 30 mP and 27 mP and the “fluorescence polarization” value ([4]; MtrR WT dimer 600 nM) was 31 mP and 27 mP and 29 mP. For the same compound, the “fluorescence polarization” value ([4]; MtrR WT dimer 800 nM) was 33 mP and 36 mP and 34 mP, the “change in binding affinity of MtrR for rpoH operator” value ([5]; presence of ethinyl estradiol, 125 µM) was “decreases in” and the “fluorescence polarization” value ([5]; MtrR WT dimer 0 nM) was 0 mP. For the same compound, the “fluorescence polarization” value ([5]; MtrR WT dimer 9.4 nM) was 5 mP and 3 mP and 4 mP, the “fluorescence polarization” value ([5]; MtrR WT dimer 25 nM) was 10 mP and 5 mP and the “fluorescence polarization” value ([5]; MtrR WT dimer 37.5 nM) was 12 mP and 10 mP and 16 mP. The “fluorescence polarization” value ([5]; MtrR WT dimer 50 nM) was 21 mP and 17 mP and 16 mP, the “fluorescence polarization” value ([5]; MtrR WT dimer 75 nM) was 25 mP and 18 mP and 24 mP and the “fluorescence polarization” value ([5]; MtrR WT dimer 100 nM) was 29 mP and 24 mP. The “fluorescence polarization” value ([5]; MtrR WT dimer 150 nM) was 36 mP and 29 mP and 33 mP, the “fluorescence polarization” value ([5]; MtrR WT dimer 200 nM) was 40 mP and 31 mP and 33 mP and the “fluorescence polarization” value ([5]; MtrR WT dimer 300 nM) was 44 mP and 39 mP and 40 mP. The “fluorescence polarization” value ([5]; MtrR WT dimer 400 nM) was 48 mP and 37 mP and 40 mP, the “fluorescence polarization” value ([5]; MtrR WT dimer 600 nM) was 50 mP and 42 mP and 51 mP and the “fluorescence polarization” value ([5]; MtrR WT dimer 800 nM) was 50 mP and 44 mP and 53 mP. For the same compound, the “binding to MtrR W136A compared with wild type” value [6] was “tolerates binding”, the “induction of mtrC expression” value [7] was “could induce expression” and the “induction of rpoH expression” value [8] was “could induce expression”.
In the case of CC[C@H]1OC(=O)[C@H](C)[C@@H](O[C@H]2C[C@@](C)(OC)[C@@H](O)[C@H](C)O2)[C@H](C)[C@@H](O[C@@H]2O[C@H](C)C[C@H](N(C)C)[C@H]2O)[C@](C)(O)C[C@@H](C)CN(C)[C@H](C)[C@@H](O)[C@]1(C)O [azithromycin], the “binding to MtrR WT” value [3] is reported as “no binding; also recorded: does not bind”.
For C[C@H](CCC(=O)O)[C@H]1CC[C@H]2[C@@H]3[C@H](O)C[C@@H]4C[C@H](O)CC[C@]4(C)[C@H]3CC[C@]12C [chenodeoxycholate], the “MtrR binding and induction” value [9] is listed as “binds and is induced by”.
In the case of CC(C)CCC[C@@H](C)[C@H]1CC[C@H]2[C@@H]3CC=C4C[C@@H](O)CC[C@]4(C)[C@H]3CC[C@]12C [cholesterol], the “binding to MtrR WT” value [3] is reported as “no binding”.
For C[C@]12CCC(=O)C=C1CC[C@@H]1[C@@H]2[C@@H](O)C[C@@]2(C)[C@H]1CC[C@]2(O)C(=O)CO [cortisol], the “binding to MtrR WT” value [3] was “no binding”.
In the case of C[C@H](CCC(=O)NCCS(=O)(=O)O)[C@H]1CC[C@H]2[C@@H]3CC[C@@H]4C[C@H](O)CC[C@]4(C)[C@H]3C[C@H](O)[C@]12C [taurodeoxycholate], the “MtrR binding and induction” value [9] is given as “binds and is induced by”.
